Laboratory results as given in the supplement of paper PMC10307832.

Tests used:
Test in all cases: relative viability (nuclei count vs DMSO), 5 days (fraction); higher = more cells survive
[1] = compound: CCOC1=CC=CC=C1N=NC2=C(NN(C2=O)C3=NC(=CS3)C4=CC=CC=C4)C [BAM7] + N=C(N)NC(=N)NCCc1ccccc1 [Phenformin] (partner 250 µM)
Outline: (§1)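 Each reported value is a median over duplicate plates. It expresses relative viability: treated-well nuclei count divided by vehicle-well nuclei count. Lung cancer cell lines in 1536-well plates were dosed by pin tool a day after seeding, alone with one drug or with a fixed anchor-drug dose plus five library-drug doses (not always all listed) in √10 steps, and nuclei were counted after 5 days.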

[2] = compound: CCOC1=CC=CC=C1N=NC2=C(NN(C2=O)C3=NC(=CS3)C4=CC=CC=C4)C [BAM7] + CC(=O)Nc1cccc(-n2c(=O)n(C3CC3)c(=O)c3c(Nc4ccc(I)cc4F)n(C)c(=O)c(C)c32)c1 [Trametinib] (partner 0.02 µM)
Outline: as §1

[3] = compound: CCOC1=CC=CC=C1N=NC2=C(NN(C2=O)C3=NC(=CS3)C4=CC=CC=C4)C [BAM7] + Nc1ncn([C@H]2C[C@H](O)[C@@H](CO)O2)c(=O)n1 [Decitabine] (partner 2 µM)
Outline: as §1

[4] = compound: CCn1c(-c2nonc2N)nc2c(C#CC(C)(C)O)ncc(OC[C@H]3CCCNC3)c21 + CC1(C)CCC(c2ccc(Cl)cc2)=C(CN2CCN(c3ccc(C(=O)NS(=O)(=O)c4ccc(N[C@H](CCN5CCOCC5)CSc5ccccc5)c(S(=O)(=O)C(F)(F)F)c4)cc3)CC2)C1 [Navitoclax] (partner 0.5 µM)
Outline: as §1

Cell Line	relative viability ([1]; first compound 0.5 µM)	relative viability ([1]; first compound 5 µM)	relative viability ([1]; first compound 15.81 µM)	relative viability ([1]; first compound 50 µM)	relative viability ([2]; first compound 0.5 µM)	relative viability ([2]; first compound 5 µM)	relative viability ([2]; first compound 15.81 µM)	relative viability ([2]; first compound 50 µM)	relative viability ([3]; first compound 0.5 µM)	relative viability ([3]; first compound 5 µM)	relative viability ([3]; first compound 15.81 µM)	relative viability ([3]; first compound 50 µM)	relative viability ([4]; first compound 0.01 µM)	relative viability ([4]; first compound 0.03162 µM)	relative viability ([4]; first compound 0.1 µM)	relative viability ([4]; first compound 0.3162 µM)	relative viability ([4]; first compound 1 µM)
NCI-H522	0.671	0.768	0.614	0.712	0.72	0.741	0.665	0.718	0.729	0.638	0.687	0.671	–	–	–	–	–
HCC-15	0.506	0.434	0.496	0.471	0.341	0.374	0.331	0.384	0.607	0.587	0.621	0.676	0.72	0.752	0.721	0.634	0.653
A-427	0.401	0.323	0.288	0.35	0.765	0.809	0.752	0.911	0.531	0.551	0.543	0.569	0.941	0.955	0.913	0.973	1.02
NCI-H2228	0.302	0.355	0.418	0.317	0.601	0.523	0.41	0.547	–	–	–	–	0.728	0.673	0.791	0.634	0.787
NCI-H1734	0.41	0.491	0.392	0.401	0.766	0.798	0.667	0.626	0.515	0.519	0.551	0.489	0.781	0.921	0.814	0.821	0.816
PC-14	0.619	0.558	0.588	0.591	0.829	0.745	0.542	0.697	0.243	0.183	0.208	0.208	1.04	1.02	0.976	0.875	1.08
NCI-H1915	0.377	0.374	0.405	0.382	0.333	0.317	0.272	0.323	0.266	0.259	0.249	0.281	0.821	0.778	0.79	0.488	0.76
NCI-H1666	0.592	0.588	0.588	0.563	0.895	0.879	0.887	0.837	0.691	0.775	0.718	0.677	0.881	0.835	0.699	0.904	0.871
HCC-366	0.576	0.605	0.668	0.594	0.328	0.373	0.294	0.356	0.325	0.327	0.319	0.313	0.967	1.1	1.01	1.06	1.02
SK-MES-1	0.721	0.724	0.607	0.659	0.566	0.551	0.523	0.495	0.346	0.337	0.375	0.395	1.22	1.22	1.18	1.22	1.2
SW 1573	0.386	0.381	0.327	0.39	0.633	0.592	0.541	0.528	0.502	0.551	0.636	0.594	0.895	0.859	0.934	0.943	0.735
NCI-H661	0.241	0.258	0.264	0.298	0.561	0.638	0.606	0.619	0.597	0.579	0.611	0.579	–	–	–	–	–
PC-3 [JPC-3]	0.447	0.491	0.458	0.439	0.592	0.722	0.637	0.617	0.775	0.808	0.688	0.766	0.806	0.788	0.859	0.837	0.809
NCI-H1623	0.606	0.561	0.542	0.673	–	–	–	–	–	–	–	–	–	–	–	–	–
Calu-6	–	–	–	–	–	–	–	–	–	–	–	–	0.75	0.797	0.827	0.86	0.983
LC-2-ad	0.538	0.55	0.582	0.591	0.884	0.91	0.87	0.847	0.786	0.774	0.751	0.689	0.56	0.417	0.579	0.419	0.487
CAL-12T	0.576	0.601	0.586	0.607	0.381	0.333	0.303	0.384	–	–	–	–	1.24	1.22	1.3	1.33	1.06
RERF-LC-KJ	0.357	0.35	0.29	0.328	0.767	0.708	0.526	0.642	0.617	0.615	0.398	0.48	0.944	1.04	0.773	1.17	0.791
